In patent US20230109010A1, “PESTICIDE COMPOSITIONS WITH SUPRAMOLECULAR STRUCTURES FOR AGRICULTURAL USE” (BPS JUST ENERGY TECHNOLOGY, LLC, priority 2020, published 2023):

How the values were obtained:
fall panicum [1] = experiment: Field trial in corn at V3, broadcast treatment on 2-4 inch weeds, % weed control; assay type: in vivo, Panicum dichotomiflorum
From the text: (§1) The herbicides tested were glufosinate, glyphosate, and mesotrione. Each herbicide was combined at the specified rate with either deionized water or SymMAX™ supramolecular host water mixture commercially available from Shotwell Hydrogenics at 15 gallons per acre (GPA). Specified rates for glufosinate were 22 ounces per acre, 11 ounces per acre, and 5.5 ounces per acre. Specified rates for glyphosate were 22 ounces per acre, 11 ounces per acre, and 5.5 ounces per acre. Specified rates for mesotrione were 3 ounces per acre, 2 ounces per acre, and 1 ounce per acre.
(§2) This example was conducted as a 4 replicate, RCBD (randomized control block design) in Quitman, GA. An untreated control was used as a standard that provided no weed control and no phytotoxicity. All treatments were compared to the untreated control. Counted dead weeds and living weeds were used to determine % weed control. The untreated control was also used to determine % crop phytotoxicity for the crop. Typical indications of phytotoxicity include chlorosis, stunting, epinasty, and/or leaf burn.
(§3) The trial ran for 14 days with weekly data assessments taken on % crop phytotoxicity and % weed control of four key species: palmer amaranth (Amaranthus palmeri), ivyleaf morning glory (Ipomoea hederacea), fall panicum (Panicum dichotomiflorum) and large crabgrass (Digitaria sanguinalis The test field was over seeded with weed seed obtained from the University of Georgia prior to corn planting. Treatments were applied as a broadcast treatment when corn had reached physiological growth stage V3 and weeds were in the 2-4″ size range. Treatments were applied at various rates ranging from about 1 ounce per acre to about 22 ounces per acre. Tables 9-10 show the % weed control when the weeds are treated with glufosinate. Tables 11-12 show the % weed control when the weeds are treated with glyphosphate. Tables 13-14 show the % weed control when the weeds are treated with mesotrione.

ivyleaf morning glory = experiment: as above; assay type: in vivo, Ipomoea hederacea
From the text: as §1, §2, §3

large crabgrass [2] = experiment: as above; assay type: in vivo, Digitaria sanguinalis
From the text: as §1, §2, §3

palmer amaranth [3] = experiment: as above; assay type: in vivo, Amaranthus palmeri
From the text: as §1, §2, §3

palmer amaranth [4] = experiment: Field trial in corn, herbicide applied 3 days after planting, % weed control; assay type: in vivo, Amaranthus palmeri
Protocol: (§4) The herbicides tested were acetochlor and s-metolachlor. Each herbicide was combined at the specified rate with either deionized water or SymMAX™ supramolecular host chemistry that is commercially available from Shotwell Hydrogenics at 15 gallons per acre (GPA). Specified rates for acetochlor were 0.5 parts per acre, 1 part per acre, and 2 parts per acre. […]
as §2
(§5) The trial ran for 28 days with weekly data assessments taken on % crop phytotoxicity and % weed control of three key species: palmer amaranth (Amaranthus palmeri), fall panicum (Panicum dichotomiflorum) and large crabgrass (Digitaria sanguinalis). The test field was over seeded with weed seed obtained from the University of Georgia prior to corn planting. Treatments were applied 3 days after planting as a broadcast application at various rates ranging from about 0.5 parts per acre to about 2 parts per acre. Tables 1-4 show the % weed control when the weeds are treated with acetachlor. Tables 4-8 show the % weed control when the weeds are treated with s-metolachlor.

large crabgrass [5] = experiment: as above; assay type: in vivo, Digitaria sanguinalis
Protocol: as §4, §2, §5

fall panicum [6] = experiment: as above; assay type: in vivo, Panicum dichotomiflorum
Protocol: as §4, §2, §5

[7] = 7 days, glyphosate 5.5 ounces/acre
[8] = 7 days, glyphosate 11 ounces/acre
[9] = 7 days, glyphosate 22 ounces/acre
[10] = 14 days, glyphosate 5.5 ounces/acre
[11] = 14 days, glyphosate 11 ounces/acre
[12] = 14 days, glyphosate 22 ounces/acre
[13] = 7 days, mesotrione 1 ounce/acre
[14] = 7 days, mesotrione 2 ounces/acre
[15] = 7 days, mesotrione 3 ounces/acre
[16] = 14 days, mesotrione 1 ounce/acre
[17] = 14 days, mesotrione 2 ounces/acre
[18] = 14 days, mesotrione 3 ounces/acre
[19] = 7 days, s-metolachlor 0.75 part/acre
[20] = 7 days, s-metolachlor 1 part/acre
[21] = 7 days, s-metolachlor 1.5 parts/acre
[22] = 14 days, s-metolachlor 0.75 part/acre
[23] = 14 days, s-metolachlor 1 part/acre
[24] = 14 days, s-metolachlor 1.5 parts/acre
[25] = 21 days, s-metolachlor 0.75 part/acre
[26] = 21 days, s-metolachlor 1 part/acre
[27] = 21 days, s-metolachlor 1.5 parts/acre
[28] = 28 days, s-metolachlor 0.75 part/acre
[29] = 28 days, s-metolachlor 1 part/acre
[30] = 28 days, s-metolachlor 1.5 parts/acre

## O=C(O)CNCP(=O)(O)O [Glyphosate, glyphosate]
Fall panicum [1]; [7]
  % WEED CONTROL FOR FALL PANICUM: 85.8%
Fall panicum [1]; [8]
  % WEED CONTROL FOR FALL PANICUM: 97.5%
Fall panicum [1]; [9]
  % WEED CONTROL FOR FALL PANICUM: 98.8%
Fall panicum [1]; [10]
  % WEED CONTROL FOR FALL PANICUM: 81.8%
Fall panicum [1]; [11]
  % WEED CONTROL FOR FALL PANICUM: 95.4%
Fall panicum [1]; [12]
  % WEED CONTROL FOR FALL PANICUM: 98.4%
Ivyleaf morning glory; [7]
  % WEED CONTROL FOR IVYLEAF MORNINGLORY: 14.3%
Ivyleaf morning glory; [8]
  % WEED CONTROL FOR IVYLEAF MORNINGLORY: 13.5%
Ivyleaf morning glory; [9]
  % WEED CONTROL FOR IVYLEAF MORNINGLORY: 28.0%
Ivyleaf morning glory; [10]
  % WEED CONTROL FOR IVYLEAF MORNINGLORY: 9.7%
Ivyleaf morning glory; [11]
  % WEED CONTROL FOR IVYLEAF MORNINGLORY: 59.8%
Ivyleaf morning glory; [12]
  % WEED CONTROL FOR IVYLEAF MORNINGLORY: 76.3%
Large crabgrass [2]; [7]
  % WEED CONTROL FOR LARGE CRABGRASS: 90.8%
Large crabgrass [2]; [8]
  % WEED CONTROL FOR LARGE CRABGRASS: 97.8%
Large crabgrass [2]; [9]
  % WEED CONTROL FOR LARGE CRABGRASS: 100.0%
Large crabgrass [2]; [10]
  % WEED CONTROL FOR LARGE CRABGRASS: 89.0%
Large crabgrass [2]; [11]
  % WEED CONTROL FOR LARGE CRABGRASS: 94.0%
Large crabgrass [2]; [12]
  % WEED CONTROL FOR LARGE CRABGRASS: 98.0%
Palmer amaranth [3]; [7]
  % WEED CONTROL FOR PALMER AMARANTH: 63.8%
Palmer amaranth [3]; [8]
  % WEED CONTROL FOR PALMER AMARANTH: 76.4%
Palmer amaranth [3]; [9]
  % WEED CONTROL FOR PALMER AMARANTH: 81.9%
Palmer amaranth [3]; [10]
  % WEED CONTROL FOR PALMER AMARANTH: 58.3%
Palmer amaranth [3]; [11]
  % WEED CONTROL FOR PALMER AMARANTH: 75.8%
Palmer amaranth [3]; [12]
  % WEED CONTROL FOR PALMER AMARANTH: 83.5%

## CS(=O)(=O)c1ccc(C(=O)C2C(=O)CCCC2=O)c([N+](=O)[O-])c1 [Mesotrione, mesotrione]
Fall panicum [1]; [13]
  % WEED CONTROL FOR FALL PANICUM: 62.8%
Fall panicum [1]; [14]
  % WEED CONTROL FOR FALL PANICUM: 72.3%
Fall panicum [1]; [15]
  % WEED CONTROL FOR FALL PANICUM: 87.3%
Fall panicum [1]; [16]
  % WEED CONTROL FOR FALL PANICUM: 54.8%
Fall panicum [1]; [17]
  % WEED CONTROL FOR FALL PANICUM: 62.3%
Fall panicum [1]; [18]
  % WEED CONTROL FOR FALL PANICUM: 86.0%
Ivyleaf morning glory; [13]
  % WEED CONTROL FOR IVYLEAF MORNINGLORY: 64.5%
Ivyleaf morning glory; [14]
  % WEED CONTROL FOR IVYLEAF MORNINGLORY: 91.6%
Ivyleaf morning glory; [15]
  % WEED CONTROL FOR IVYLEAF MORNINGLORY: 94.2%
Ivyleaf morning glory; [16]
  % WEED CONTROL FOR IVYLEAF MORNINGLORY: 88.8%
Ivyleaf morning glory; [17]
  % WEED CONTROL FOR IVYLEAF MORNINGLORY: 96.5%
Ivyleaf morning glory; [18]
  % WEED CONTROL FOR IVYLEAF MORNINGLORY: 99.1%
Large crabgrass [2]; [13]
  % WEED CONTROL FOR LARGE CRABGRASS: 62.3%
Large crabgrass [2]; [14]
  % WEED CONTROL FOR LARGE CRABGRASS: 81.5%
Large crabgrass [2]; [15]
  % WEED CONTROL FOR LARGE CRABGRASS: 91.5%
Large crabgrass [2]; [16]
  % WEED CONTROL FOR LARGE CRABGRASS: 63.0%
Large crabgrass [2]; [17]
  % WEED CONTROL FOR LARGE CRABGRASS: 78.8%
Large crabgrass [2]; [18]
  % WEED CONTROL FOR LARGE CRABGRASS: 88.5%
Palmer amaranth [3]; [13]
  % WEED CONTROL FOR PALMER AMARANTH: 87.4%
Palmer amaranth [3]; [14]
  % WEED CONTROL FOR PALMER AMARANTH: 97.7%
Palmer amaranth [3]; [15]
  % WEED CONTROL FOR PALMER AMARANTH: 99.0%
Palmer amaranth [3]; [16]
  % WEED CONTROL FOR PALMER AMARANTH: 95.1%
Palmer amaranth [3]; [17]
  % WEED CONTROL FOR PALMER AMARANTH: 97.0%
Palmer amaranth [3]; [18]
  % WEED CONTROL FOR PALMER AMARANTH: 99.3%

## CCc1cccc(C)c1N(C(=O)CCl)[C@@H](C)COC [S-metolachlor, s-metolachlor]
Palmer amaranth [4]; [19]
  % WEED CONTROL FOR PALMER AMARANTH: 96.0%
Palmer amaranth [4]; [20]
  % WEED CONTROL FOR PALMER AMARANTH: 99.3%
Palmer amaranth [4]; [21]
  % WEED CONTROL FOR PALMER AMARANTH: 100.0%
Palmer amaranth [4]; [22]
  % WEED CONTROL FOR PALMER AMARANTH: 94.3%
Palmer amaranth [4]; [23]
  % WEED CONTROL FOR PALMER AMARANTH: 98.0%
Palmer amaranth [4]; [24]
  % WEED CONTROL FOR PALMER AMARANTH: 100.0%
Palmer amaranth [4]; [25]
  % WEED CONTROL FOR PALMER AMARANTH: 96.0%
Palmer amaranth [4]; [26]
  % WEED CONTROL FOR PALMER AMARANTH: 99.0%
Palmer amaranth [4]; [27]
  % WEED CONTROL FOR PALMER AMARANTH: 100.0%
Palmer amaranth [4]; [28]
  % WEED CONTROL FOR PALMER AMARANTH: 98.8%
Palmer amaranth [4]; [29]
  % WEED CONTROL FOR PALMER AMARANTH: 100.0%
Palmer amaranth [4]; [30]
  % WEED CONTROL FOR PALMER AMARANTH: 100.0%
Large crabgrass [5]; [19]
  % WEED CONTROL FOR LARGE CRABGRASS: 92.0%
Large crabgrass [5]; [20]
  % WEED CONTROL FOR LARGE CRABGRASS: 99.0%
Large crabgrass [5]; [21]
  % WEED CONTROL FOR LARGE CRABGRASS: 100.0%
Large crabgrass [5]; [22]
  % WEED CONTROL FOR LARGE CRABGRASS: 82.8%
Large crabgrass [5]; [23]
  % WEED CONTROL FOR LARGE CRABGRASS: 89.0%
Large crabgrass [5]; [24]
  % WEED CONTROL FOR LARGE CRABGRASS: 98.0%
Large crabgrass [5]; [25]
  % WEED CONTROL FOR LARGE CRABGRASS: 91.3%
Large crabgrass [5]; [26]
  % WEED CONTROL FOR LARGE CRABGRASS: 84.3%
Large crabgrass [5]; [27]
  % WEED CONTROL FOR LARGE CRABGRASS: 93.0%
Large crabgrass [5]; [28]
  % WEED CONTROL FOR LARGE CRABGRASS: 90.0%
Large crabgrass [5]; [29]
  % WEED CONTROL FOR LARGE CRABGRASS: 99.7%
Large crabgrass [5]; [30]
  % WEED CONTROL FOR LARGE CRABGRASS: 100.0%
Fall panicum [6]; [19]
  % WEED CONTROL FOR FALL PANICUM: 91.3%
Fall panicum [6]; [20]
  % WEED CONTROL FOR FALL PANICUM: 97.5%
Fall panicum [6]; [21]
  % WEED CONTROL FOR FALL PANICUM: 100.0%
Fall panicum [6]; [22]
  % WEED CONTROL FOR FALL PANICUM: 83.5%
Fall panicum [6]; [23]
  % WEED CONTROL FOR FALL PANICUM: 91.8%
Fall panicum [6]; [24]
  % WEED CONTROL FOR FALL PANICUM: 97.8%
Fall panicum [6]; [25]
  % WEED CONTROL FOR FALL PANICUM: 90.1%
Fall panicum [6]; [26]
  % WEED CONTROL FOR FALL PANICUM: 89.4%
Fall panicum [6]; [27]
  % WEED CONTROL FOR FALL PANICUM: 98.9%
Fall panicum [6]; [28]
  % WEED CONTROL FOR FALL PANICUM: 88.3%
Fall panicum [6]; [29]
  % WEED CONTROL FOR FALL PANICUM: 97.3%
Fall panicum [6]; [30]
  % WEED CONTROL FOR FALL PANICUM: 100.0%
